Assay [1] concerns IL-6 and IL-8 secretion in BEAS-2B cells. The experiment in a line: Particle-induced secretion of pro-inflammatory cytokines (ELISA) in BEAS-2B cells. The format is cell-based. The protocol:
Secretion of the pro-inflammatory cytokines interleukin (IL)-6, IL-8 (as well as GM-CSF and MCP-1) into cell media in response to particle exposure was measured in A549 and BEAS-2B cells using the following method.
Lung epithelial cells were seeded at 5×10^4 in 24-well plates. After pre-incubation with NBMI, the anti-oxidant compound, N-acetyl-L-cysteine (NAC), which was used as a positive control, or vehicle, for 3 hours the medium was removed.
Fresh media containing various particles (as below) in different concentrations was in a total volume of 0.5 ml for an additional 24 hours. The supernatants were then separated from the cells by centrifugation.
IL-8, IL-6, GM-CSF and MCP-1 were measured in the cell free fluid using the DuoSet ELISA Development kit (R&D Systems, Abingdon, UK) according to manufacturer's protocol.
Exposure to medium only served as negative control. Each experiment was performed twice with 4 replicates.
The effect of pre-incubation with 50 μM NBMI on particle-induced cytokine formation was tested at various concentrations of relevant particles.
On the technique in general: An ELISA detects its analyte on a solid surface through an enzyme-linked reagent.

In another assay the test system is COPD. The assay is described as follows: Treatment of patient with COPD. The format is in vivo, human. The protocol: A retired person residing in the USA, who had been medically diagnosed with COPD several years earlier, regularly experienced coughing fits two to four times in any 24 hour period, beginning at any hour of the day or night and lasting from about 40 to 75 minutes. As a consequence of these coughing fits, the patient's breathing was shallow, their throat irritated, their voice was raspy, their energy levels very low and their quality of life very poor.

Assay [2] relates to cigarette smoke (CS)-induced airway disease. Type of assay: in vivo, BALB/c mice. The conditions noted are these: for weight gained compared to start weight: CS-exposed. The protocol:
The 14 day dose-finding study was therefore followed by a 90 day study using essentially the same apparatus and protocol described in Example 4 above. On this occasion, the 5 treatment groups were as follows: • 1. Daily exposure to clean air (Placebo Group; Gr. 1) • 2. Daily exposure to CS (CS-Exposed Placebo Group; Gr. 2) • 3. Daily exposure to CS; treated with NBMI at a 30 mg/kg dose (NBMI 30 mg/kg Group; Gr. 3) • 4. Daily exposure to CS; treated with NBMI at a 60 mg/kg dose (NBMI 60 mg/kg Group; Gr. 4) • 5. Daily exposure to CS; treated with NBMI at a 150 mg/kg dose (NBMI 150 mg/kg Group; Gr. 5) On Day 91, animals were weighed and anesthetised with pentobarbital sodium (90 mg/kg body weight, i.p.). Mice were tracheotomised with an 18-gauge cannula and mechanically ventilated in a quasi-sinusoidal fashion with a small animal ventilator (flexiVent™, SCIREQ®) at a frequency of 3 Hz and a tidal volume (VT) of 12 ml/kg body weight. A positive end-expiratory pressure of 3 cm H2O was applied. The animal's cardiac output was monitored throughout the respiratory mechanics assessment. Mice were paralysed with pancuronium (0.1 mg/kg body weight, i.p. (local suppliers)) before 4 sigh manoeuvres at 3×VT were performed at the beginning of the experiment to establish stable baseline respiratory mechanics and to ensure a similar volume history before the experiment. Dynamic lung mechanics were measured by applying a sinusoidal standardised breath and analysed using the single compartment model and multiple linear regression, giving respiratory resistance (RRS), elastance (ERS) and compliance (CRS). The measurement of RRS reflects both narrowing of the conducting airways and alterations in the lung. The measurement of CRS and ERS reflects only events in the lung periphery, particularly airway closure leading to lung unit de-recruitment. By contrast, a selective change in CRS is indicative of a more distal site of action. More thorough evaluations of lung mechanics were made using forced oscillation technique (FOT) according to Jonasson et al., Respir. Res., 9, 23 (2008) and Respir. Physiol. Neurobiol., 165, 229 (2009). The parameters obtained from the FOT measurements in this study were: Newtonian resistance (RN), tissue damping (G), which is closely related to tissue resistance and reflects energy dissipation in the lung tissues; and tissue elastance (H), which characterises tissue stiffness and reflects energy storage in the tissues. Dynamic pressure-volume (PV) curves were determined by inflating the lungs to a maximum pressure of 30 cm H2O, allowing passive exhalation using the computer-controlled Flexivent ventilator for measuring volume and pressure. Individual results from each animal were compiled. All PV-measurements were performed in triplicate. Quasi-static PV loops were obtained by a slow stepwise inflation and deflation of the lungs. PV loops were performed for PEEP-levels, 3 cm H2O. The shape factor (k) of the descending limb of the PV loop was calculated by fitting the data to the Salazar-Knowles equation. The value of the parameter k is believed to change characteristically with both fibrosis and emphysema. The quasi-static compliance (Cst) and elastance (Est) and the volume air inspired sufficient to reach 20 cm water were also obtained. Bronchoalveolar lavage (BAL) was carried out essentially as described in Example 4 above, as was flow cytometry analysis of cells from BAL and analysis of inflammatory mediators in BAL and serum. Frozen lung tissue was homogenised together with 1 mL PBS in a 2 mL tube, using a mixer mill (Retch mm400) for 2 minutes at 4° C. Immediately after homogenisation, the tube was centrifuged for 15 minutes (1500 rpm, 4° C.). The supernatant was removed and saved for protein concentration determination using a NanoDrop spectrophotometer (Proteins A280). After analysing the protein content, equal amounts of protein from each sample were saved for the transforming growth factor beta (TGFβ) 1-3 analysis. […]

[3] abbreviates: TiO2 P25 100 μg/cm^2, pre-incubation 50 μM NBMI.
Where [4] appears, read: by the eighth day, 100 mg capsule three times daily.

Like-named read-outs stand apart in the source and are kept apart here.

Consider one compound from US9782368B2, “Use of N,N-bis-2-mercaptoethyl isophthalamide” (EMERAMED LIMITED, priority 2014, dated 2017).

Regarding `O=C(NCCS)c1cccc(C(=O)NCCS)c1` [NBMI, N,N-bis-2-mercaptoethyl isophthalamide], the “reduction of secretion of IL-6” value came out at 37% in assay [1] (setting [3]) and 47% in assay [1] (Urban Dust 100 μg/cm^2, pre-incubation 50 μM NBMI). For the same compound, the “reduction of secretion of IL-8” value in assay [1] (setting [3]) was determined as 49%. Moreover, the “symptoms of COPD” value in the assay with COPD (100 mg capsule three times daily for eight days, one patient) is “marked improvement in symptoms”. In the assay on COPD (setting [4]), the breathing result is recorded as “significantly improved breathing”. For the same compound, the coughing fits entry with COPD (setting [4]) is recorded as “no coughing fits”. The “respiratory function (PV-curves) vs placebo group Gr. 2” value in assay [2] (30, 60 and 150 mg/kg) is listed as “did not display significantly changed respiratory function”. Also, the “macrophages in BAL fluid” value in assay [2] (30, 60 and 150 mg/kg, Day 90) is listed as “did not have significantly lower numbers of macrophages”. The “weight gained compared to start weight” value is 1.0 ± 0.4 g in assay [2] (Day 90, Gr. 3, 30 mg/kg); 0.7 ± 0.2 g in assay [2] (Day 90, Gr. 4, 60 mg/kg); 0.6 ± 0.2 g in assay [2] (Day 90, Gr. 5, 150 mg/kg). The “percentage of T helper (CD4+/CD3+) and T cytotoxic (CD8+/CD3+) lymphocytes in BAL fluid” value in assay [2] (FACS, NBMI-treated groups) was “not significant altered”. Also, the “neutrophils in BAL fluid” value in assay [2] (Gr. 4, 60 mg/kg) was “tendency to a lower number of neutrophils”; in assay [2] (Gr. 5, 150 mg/kg) it was “tendency to a lower number of neutrophils”. The “GM-CSF level in serum vs Gr. 2” value in assay [2] (Gr. 5, 150 mg/kg, p<0.01) is “lowered”. In addition, the “MIP-1β level in serum vs Gr. 2” value in assay [2] (Gr. 5, 150 mg/kg, p<0.05) is given as “lowered”. Moreover, in assay [2] (NBMI-treated animals), the “T cytotoxic (CD8+/CD3+) lymphocytes in BAL fluid vs Gr. 2” value is recorded as “significant decrease”. Further, in assay [2] (all NBMI-treated groups), the “lymphocytes in BAL fluid (tendency)” value is “a lower number of lymphocytes”. In addition, the “TGFβ1-3 in lung homogenate vs Gr. 2” value in assay [2] (animals receiving NBMI) is on record as “did not have significantly changed amount”.
